Measurements published in US9242993B2, “Morpholino substituted bicyclic pyrimidine urea or carbamate derivatives as mTOR inhibitors” (CELLZOME LIMITED, priority 2011, dated 2016).

Key:
[1] = tested on: S6RP serine-240/244 phosphorylation; assay: In vitro phospho-S6 cellular assay; type: cell-based; conditions: Homo sapiens; HEK293T/17 cells, 2 hours; read-out: pS6 inhibition value (IC50), activity level
Method in brief: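 HEK293T/17 cells (40,000/well for pS6RP, 80,000/well for pAkt) in DMEM, 2% FCS treated 2 h at 37 °C with 8 compound concentrations (0.1% DMSO). Lysates assayed by MesoScale sandwich electrochemiluminescence for pS6RP Ser240/244 or pAkt Ser473. Curves fitted by sigmoidal variable-slope regression.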

[2] = tested on: IFNγ release in whole blood; assay: In vitro human whole blood assay (IFNγ release); type: cell-based; conditions: αCD3/αCD28 and IL-2 stimulation, 18 hours, read-out: WB inhibition value (pIC50) (converted)
Description: This assay measures IFNγ release in whole blood after αCD3/αCD28 and IL-2 treatment. The whole blood contains circulating T lymphocytes; αCD3/αCD28 stimulation mimics antigen receptor signalling, resulting in epigenetic changes to the IFNG gene locus, such that when IL-2 is added, IFNγ is produced.
Human whole blood, with Na-heparin as the anticoagulant, is obtained from Clinical Trials Laboratory Services. Blood is diluted 1.4 times with RPMI 1640 (Lonza, BE12-167F) and 175 μl/well is distributed in a low evaporation 96-well plates (Falcon, BD Labware, 353072). Blood is treated with 10 concentrations of test compounds or DMSO alone for controls (final DMSO concentration 0.2%) and incubated at 37° C. for 1 hour. Blood is then stimulated with 1 μg/ml αCD3 (R&D Systems, MAB100), 1 μg/ml αCD28 (BD Pharmingen, 555725) and IL-2 at 10 ng/ml (Peprotech, 200-02). Blood is then left to incubate at 37° C. for 18 hours. After, plates are spun at 250 g for 5 minutes to pellet blood cells and 25 μl of plasma is transferred to a MesoScale plate coated with an antibody to IFNγ (MesoScale Discovery K151AEC-2) containing 25 μl/well MesoScale Discovery Blocking Solution-2. Plates have been blocked by incubating with 25 μl/well MesoScale Discovery Blocking Solution-2 for 30 minutes at room temperature. After the transfer of sera to the MSD plate, the IFNγ protein is captured on the coated antibody by incubation at room temperature for 2 hour with gentle shaking. After the capture step the plate is washed three times with 150 μl/well of 1×PBS-Tween wash buffer and 25 μl/well detection antibody conjugated with a Sulfo-Tag is added and incubated for 2 hours at room temperature with gentle shaking. Subsequently the antibody solution is removed and the plate is washed 3 times with 150 μl/well 1×PBS-Tween wash buffer and 150 μl/well MesoScale Discovery Read buffer is added. The plates are analysed on a MSD 2400 Plate Reader (MesoScale Discovery). Data analysis is performed using nonlinear regression for a sigmoidal dose-response with a variable slope.

[3] = molecular target: mTOR (Homo sapiens, UniProt P42345); assay: biochemical
[4] = molecular target: DNA-dependent protein kinase (DNA-PK) (Homo sapiens, UniProt P78527); assay: biochemical
Sequence of DNA-dependent protein kinase (DNA-PK) (P78527 whole entry): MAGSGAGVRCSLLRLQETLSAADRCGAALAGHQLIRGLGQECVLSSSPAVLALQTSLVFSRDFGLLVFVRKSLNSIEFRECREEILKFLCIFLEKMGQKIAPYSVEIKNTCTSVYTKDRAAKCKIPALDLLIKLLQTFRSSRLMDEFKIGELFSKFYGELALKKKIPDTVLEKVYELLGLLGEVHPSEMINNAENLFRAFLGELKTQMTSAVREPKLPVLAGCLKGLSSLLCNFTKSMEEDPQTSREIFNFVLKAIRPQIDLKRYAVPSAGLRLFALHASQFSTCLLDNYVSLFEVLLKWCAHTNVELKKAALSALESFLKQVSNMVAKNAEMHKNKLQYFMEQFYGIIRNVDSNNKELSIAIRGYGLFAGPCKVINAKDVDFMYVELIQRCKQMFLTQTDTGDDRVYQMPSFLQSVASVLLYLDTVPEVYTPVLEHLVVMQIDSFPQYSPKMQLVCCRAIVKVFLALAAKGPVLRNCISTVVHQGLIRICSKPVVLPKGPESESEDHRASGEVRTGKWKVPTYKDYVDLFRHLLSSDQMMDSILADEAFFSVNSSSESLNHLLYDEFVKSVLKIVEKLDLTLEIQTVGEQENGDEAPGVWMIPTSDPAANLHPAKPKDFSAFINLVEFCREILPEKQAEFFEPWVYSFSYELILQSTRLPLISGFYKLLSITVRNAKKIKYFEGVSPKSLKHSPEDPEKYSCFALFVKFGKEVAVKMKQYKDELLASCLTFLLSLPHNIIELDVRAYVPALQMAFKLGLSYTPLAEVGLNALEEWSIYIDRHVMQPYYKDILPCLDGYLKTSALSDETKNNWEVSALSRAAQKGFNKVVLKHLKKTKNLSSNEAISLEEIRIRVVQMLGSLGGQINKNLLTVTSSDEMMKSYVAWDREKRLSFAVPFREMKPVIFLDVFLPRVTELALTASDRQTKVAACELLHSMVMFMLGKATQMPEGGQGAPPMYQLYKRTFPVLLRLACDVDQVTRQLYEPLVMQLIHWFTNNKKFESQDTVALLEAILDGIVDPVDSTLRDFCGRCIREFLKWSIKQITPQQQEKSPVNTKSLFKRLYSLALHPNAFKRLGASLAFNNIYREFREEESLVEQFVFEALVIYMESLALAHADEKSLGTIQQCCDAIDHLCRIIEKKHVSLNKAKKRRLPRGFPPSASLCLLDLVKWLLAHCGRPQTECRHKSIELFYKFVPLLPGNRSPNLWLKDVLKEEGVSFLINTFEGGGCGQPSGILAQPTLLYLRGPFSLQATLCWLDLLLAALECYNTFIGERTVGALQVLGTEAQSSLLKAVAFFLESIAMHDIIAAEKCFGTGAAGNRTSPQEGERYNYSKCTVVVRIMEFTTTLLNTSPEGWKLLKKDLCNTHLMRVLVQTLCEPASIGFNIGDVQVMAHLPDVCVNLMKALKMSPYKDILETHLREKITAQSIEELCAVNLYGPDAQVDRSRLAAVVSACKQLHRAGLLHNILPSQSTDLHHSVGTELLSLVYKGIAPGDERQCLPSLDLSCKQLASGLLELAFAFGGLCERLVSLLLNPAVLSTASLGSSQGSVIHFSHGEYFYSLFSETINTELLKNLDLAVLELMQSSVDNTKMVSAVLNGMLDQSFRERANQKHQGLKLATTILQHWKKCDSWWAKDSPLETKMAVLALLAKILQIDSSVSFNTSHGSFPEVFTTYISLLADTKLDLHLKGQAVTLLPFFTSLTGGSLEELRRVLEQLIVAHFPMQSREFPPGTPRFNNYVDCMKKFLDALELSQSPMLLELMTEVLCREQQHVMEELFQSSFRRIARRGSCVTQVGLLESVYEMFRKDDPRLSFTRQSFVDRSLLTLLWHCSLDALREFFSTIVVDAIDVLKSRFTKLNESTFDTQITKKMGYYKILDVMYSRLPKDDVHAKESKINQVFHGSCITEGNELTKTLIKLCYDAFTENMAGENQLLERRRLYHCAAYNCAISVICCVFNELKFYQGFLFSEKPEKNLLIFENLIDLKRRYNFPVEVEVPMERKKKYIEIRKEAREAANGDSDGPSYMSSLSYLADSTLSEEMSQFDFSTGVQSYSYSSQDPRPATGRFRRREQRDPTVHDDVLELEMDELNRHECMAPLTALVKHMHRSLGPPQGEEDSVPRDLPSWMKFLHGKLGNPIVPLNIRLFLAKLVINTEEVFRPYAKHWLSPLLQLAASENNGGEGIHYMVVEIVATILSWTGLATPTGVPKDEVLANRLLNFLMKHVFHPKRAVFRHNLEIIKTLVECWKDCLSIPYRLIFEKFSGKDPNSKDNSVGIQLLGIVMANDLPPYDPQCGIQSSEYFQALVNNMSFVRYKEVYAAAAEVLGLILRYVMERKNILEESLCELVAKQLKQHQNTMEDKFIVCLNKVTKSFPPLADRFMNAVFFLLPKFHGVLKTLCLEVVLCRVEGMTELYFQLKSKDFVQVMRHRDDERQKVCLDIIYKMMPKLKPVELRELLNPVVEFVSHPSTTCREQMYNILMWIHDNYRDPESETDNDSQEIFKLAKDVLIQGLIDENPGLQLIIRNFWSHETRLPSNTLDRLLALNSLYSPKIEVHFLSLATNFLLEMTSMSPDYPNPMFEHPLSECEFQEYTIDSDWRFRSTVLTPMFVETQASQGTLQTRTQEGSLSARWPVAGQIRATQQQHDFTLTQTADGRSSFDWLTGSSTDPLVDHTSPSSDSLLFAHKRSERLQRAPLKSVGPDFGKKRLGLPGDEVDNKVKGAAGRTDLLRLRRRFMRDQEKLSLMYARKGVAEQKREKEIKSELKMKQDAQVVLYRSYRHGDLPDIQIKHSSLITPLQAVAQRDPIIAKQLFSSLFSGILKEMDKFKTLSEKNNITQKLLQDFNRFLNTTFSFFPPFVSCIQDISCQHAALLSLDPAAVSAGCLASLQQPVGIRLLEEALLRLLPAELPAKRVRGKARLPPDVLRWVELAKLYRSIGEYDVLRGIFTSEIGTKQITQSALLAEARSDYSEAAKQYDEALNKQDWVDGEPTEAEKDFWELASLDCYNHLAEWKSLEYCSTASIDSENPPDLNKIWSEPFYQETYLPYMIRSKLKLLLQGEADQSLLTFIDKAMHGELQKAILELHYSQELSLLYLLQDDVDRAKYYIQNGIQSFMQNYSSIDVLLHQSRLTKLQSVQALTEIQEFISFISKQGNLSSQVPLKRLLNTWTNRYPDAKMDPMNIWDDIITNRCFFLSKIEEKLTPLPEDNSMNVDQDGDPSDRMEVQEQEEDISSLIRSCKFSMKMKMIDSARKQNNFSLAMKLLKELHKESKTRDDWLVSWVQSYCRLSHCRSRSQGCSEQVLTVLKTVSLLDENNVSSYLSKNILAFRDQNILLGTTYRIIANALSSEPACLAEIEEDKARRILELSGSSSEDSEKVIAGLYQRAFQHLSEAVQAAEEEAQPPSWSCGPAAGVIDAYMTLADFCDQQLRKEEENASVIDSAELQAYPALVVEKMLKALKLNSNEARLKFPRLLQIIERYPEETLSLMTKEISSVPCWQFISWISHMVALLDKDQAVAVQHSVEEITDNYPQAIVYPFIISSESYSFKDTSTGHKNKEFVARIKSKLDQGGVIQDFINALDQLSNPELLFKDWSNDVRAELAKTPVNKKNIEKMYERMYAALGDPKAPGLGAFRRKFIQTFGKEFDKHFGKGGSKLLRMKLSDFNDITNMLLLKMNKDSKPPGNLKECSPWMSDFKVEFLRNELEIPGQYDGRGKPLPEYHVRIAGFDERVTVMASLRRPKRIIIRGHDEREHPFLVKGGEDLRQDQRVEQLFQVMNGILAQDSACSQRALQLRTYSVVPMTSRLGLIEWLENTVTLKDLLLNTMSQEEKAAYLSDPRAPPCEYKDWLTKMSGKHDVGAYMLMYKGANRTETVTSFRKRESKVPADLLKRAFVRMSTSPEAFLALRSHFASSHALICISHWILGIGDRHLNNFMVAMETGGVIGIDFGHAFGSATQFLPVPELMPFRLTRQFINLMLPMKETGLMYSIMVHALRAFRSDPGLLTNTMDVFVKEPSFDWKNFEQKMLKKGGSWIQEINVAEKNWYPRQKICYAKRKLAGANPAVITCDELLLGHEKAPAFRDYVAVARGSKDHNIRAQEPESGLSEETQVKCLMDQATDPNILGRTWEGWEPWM

IC50 [1]	IC50 [2]	IC50 [3]	IC50 [4]	SMILES
< 0.1 µM	0.0794 µM	0.1 to 1 µM	> 10 µM	CC[C@H]1COCCN1c1nc(-c2ccc(NC(=O)NC3CC3)cc2)nc2c1C(C)S(=O)(=O)C2 (stereo partly drawn) [Example 47, 1-cyclopropyl-3-(4-(4-((S)-3-ethylmorpholino)-5-methyl-6,6-dioxido-5,7-dihydrothieno[3,4-d]pyrimidin-2-yl)phenyl)urea]
< 0.1 µM	0.0631 µM	< 0.1 µM	> 10 µM	CCNC(=O)Nc1ccc(-c2nc3c(c(N4CCOC[C@@H]4C)n2)CS(=O)(=O)C(C)(C)C3)cc1 [Example 73, (S)-1-(4-(7,7-dimethyl-4-(3-methylmorpholino)-6,6-dioxido-7,8-dihydro-5H-thiopyrano[4,3-d]pyrimidin-2-yl)phenyl)-3-ethylurea]
< 0.1 µM	0.251 µM	< 0.1 µM	> 10 µM	CCNC(=O)Nc1ccc(-c2nc3c(c(N4CCOC[C@@H]4CC)n2)CS(=O)(=O)C3C)cc1 (stereo partly drawn) [Example 41, 1-ethyl-3-(4-(4-((S)-3-ethylmorpholino)-7-methyl-6,6-dioxido-5,7-dihydrothieno[3,4-d]pyrimidin-2-yl)phenyl)urea]
< 0.1 µM	0.0316 µM	< 0.1 µM	> 10 µM	CCNC(=O)Nc1ccc(-c2nc3c(c(N4CCOC[C@@H]4CC)n2)[C@@H](C)S(=O)(=O)C3)cc1 [Example 52, 1-ethyl-3-(4-((R)-4-((S)-3-ethylmorpholino)-5-methyl-6,6-dioxido-5,7-dihydrothieno[3,4-d]pyrimidin-2-yl)phenyl)urea]
< 0.1 µM	0.251 µM	< 0.1 µM	> 10 µM	CNC(=O)Nc1ccc(-c2nc3c(c(N4CCOC[C@@H]4C)n2)C(C)S(=O)(=O)C3)cc1 (stereo partly drawn) [Example 58, 1-methyl-3-(4-(5-methyl-4-((S)-3-methylmorpholino)-6,6-dioxido-5,7-dihydrothieno[3,4-d]pyrimidin-2-yl)phenyl)urea]
	0.316 µM	< 0.1 µM	> 10 µM	CCNC(=O)Nc1ccc(-c2nc(N3CCOC[C@@H]3CC)c3c(n2)C(C)(C)S(=O)(=O)C3)cc1 [Example 56, (S)-1-ethyl-3-(4-(4-(3-ethylmorpholino)-7,7-dimethyl-6,6-dioxido-5,7-dihydrothieno[3,4-d]pyrimidin-2-yl)phenyl)urea]
< 0.1 µM	0.158 µM	0.1 to 1 µM	> 10 µM	CC[C@H]1COCCN1c1nc(-c2ccc(NC(=O)NC)c(F)c2)nc2c1CS(=O)(=O)C2(C)C [Example 64, (S)-1-(4-(4-(3-ethylmorpholino)-7,7-dimethyl-6,6-dioxido-5,7-dihydrothieno[3,4-d]pyrimidin-2-yl)-2-fluorophenyl)-3-methylurea]
< 0.1 µM	0.501 µM	< 0.1 µM	> 10 µM	CC1c2c(nc(-c3ccc(NC(=O)NC4CC4)cc3)nc2N2CCOC[C@@H]2C)CCS1(=O)=O (stereo partly drawn) [Example 74, 1-cyclopropyl-3-(4-(5-methyl-4-((S)-3-methylmorpholino)-6,6-dioxido-7,8-dihydro-5H-thiopyrano[4,3-d]pyrimidin-2-yl)phenyl)urea]
< 0.1 µM	0.0631 µM	< 0.1 µM	> 10 µM	CCNC(=O)Nc1ccc(-c2nc3c(c(N4CCOC[C@@H]4CC)n2)[C@H](C)S(=O)(=O)C3)cc1 [Example 53, 1-ethyl-3-(4-((S)-4-((S)-3-ethylmorpholino)-5-methyl-6,6-dioxido-5,7-dihydrothieno[3,4-d]pyrimidin-2-yl)phenyl)urea]
< 0.1 µM	0.794 µM	< 0.1 µM	> 10 µM	CC1Cc2nc(-c3ccc(NC(=O)NC4CC4)cc3)nc(N3CCOC[C@@H]3C)c2CS1(=O)=O (stereo partly drawn) [Example 71, 1-cyclopropyl-3-(4-(7-methyl-4-((S)-3-methylmorpholino)-6,6-dioxido-7,8-dihydro-5H-thiopyrano[4,3-d]pyrimidin-2-yl)phenyl)urea]
	0.251 µM	< 0.1 µM	> 10 µM	CNC(=O)Nc1ccc(-c2nc(N3CCOC[C@@H]3C)c3c(n2)C(C)(C)S(=O)(=O)C3)cc1 [Example 57, (S)-1-(4-(7,7-dimethyl-4-(3-methylmorpholino)-6,6-dioxido-5,7-dihydrothieno[3,4-d]pyrimidin-2-yl)phenyl)-3-methylurea]
< 0.1 µM	0.158 µM	< 0.1 µM	> 10 µM	C[C@H]1COCCN1c1nc(-c2ccc(NC(=O)NC3CC3)cc2)nc2c1CS(=O)(=O)C(C)(C)C2 [Example 70, (S)-1-cyclopropyl-3-(4-(7,7-dimethyl-4-(3-methylmorpholino)-6,6-dioxido-7,8-dihydro-5H-thiopyrano[4,3-d]pyrimidin-2-yl)phenyl)urea]
< 0.1 µM	1 µM	< 0.1 µM	> 10 µM	C[C@H]1COCCN1c1nc(-c2ccc(NC(=O)NC3CC3)cc2)nc2c1CS(=O)(=O)C2(C)F (stereo partly drawn) [Example 43, 1-cyclopropyl-3-(4-(7-fluoro-7-methyl-4-((S)-3-methylmorpholino)-6,6-dioxido-5,7-dihydrothieno[3,4-d]pyrimidin-2-yl)phenyl)urea]
< 0.1 µM	0.316 µM	0.1 to 1 µM	> 10 µM	C[C@H]1COCCN1c1nc(-c2ccc(NC(=O)NC3COC3)cc2)nc2c1CS(=O)(=O)C2(C)C [Example 68, (S)-1-(4-(7,7-dimethyl-4-(3-methylmorpholino)-6,6-dioxido-5,7-dihydrothieno[3,4-d]pyrimidin-2-yl)phenyl)-3-(oxetan-3-yl)urea]
< 0.1 µM	0.126 µM	< 0.1 µM	> 10 µM	CCNC(=O)Nc1ccc(-c2nc(N3CCOC[C@@H]3C)c3c(n2)C(C)(C)S(=O)(=O)C3)c(F)c1 [Example 69, (S)-1-(4-(7,7-dimethyl-4-(3-methylmorpholino)-6,6-dioxido-5,7-dihydrothieno[3,4-d]pyrimidin-2-yl)-3-fluorophenyl)-3-ethylurea]
< 0.1 µM	0.316 µM	< 0.1 µM	> 10 µM	CCNC(=O)Nc1ccc(-c2nc3c(c(N4CCOC[C@@H]4C)n2)C(CC)S(=O)(=O)C3)cc1 (stereo partly drawn) [Example 67, 1-ethyl-3-(4-(5-ethyl-4-((S)-3-methylmorpholino)-6,6-dioxido-5,7-dihydrothieno[3,4-d]pyrimidin-2-yl)phenyl)urea]
< 0.1 µM	0.0794 µM	< 0.1 µM		CC1c2c(nc(-c3ccc(NC(=O)NC4CC4)cc3)nc2N2CCOC[C@H]2C)CS1(=O)=O (stereo partly drawn) [Example 48, 1-cyclopropyl-3-(4-(5-methyl-4-((R)-3-methylmorpholino)-6,6-dioxido-5,7-dihydrothieno[3,4-d]pyrimidin-2-yl)phenyl)urea]

SMILES	IC50 [1]	IC50 [2]	IC50 [3]	IC50 [4]
CC1(C)c2nc(-c3ccc(NC(=O)NC4CC4)cc3)nc(N3C4CCC3COC4)c2CS1(=O)=O [Example 59, 1-(4-(4-(3-oxa-8-azabicyclo[3.2.1]octan-8-yl)-7,7-dimethyl-6,6-dioxido-5,7-dihydrothieno[3,4-d]pyrimidin-2-yl)phenyl)-3-cyclopropylurea]	< 0.1 µM	0.1 µM	< 0.1 µM	> 10 µM
CCNC(=O)Nc1ccc(-c2nc(N3C4CCC3COC4)c3c(n2)C(C)(C)S(=O)(=O)C3)cc1 [Example 60, 1-(4-(4-(3-oxa-8-azabicyclo[3.2.1]octan-8-yl)-7,7-dimethyl-6,6-dioxido-5,7-dihydrothieno[3,4-d]pyrimidin-2-yl)phenyl)-3-ethylurea]	< 0.1 µM	0.2 µM	< 0.1 µM	> 10 µM
CCNC(=O)Nc1ccc(-c2nc(N3CCOC[C@H]3C)c3c(n2)C(C)(C)S(=O)(=O)C3)cc1 [Example 55, (R)-1-(4-(7,7-dimethyl-4-(3-methylmorpholino)-6,6-dioxido-5,7-dihydrothieno[3,4-d]pyrimidin-2-yl)phenyl)-3-ethylurea]	< 0.1 µM	0.1 µM		> 10 µM
